According to patent US20150218172A1, “Pyrrolo[2,3-D]Pyrimidine Tropomyosin-Related Kinase Inhibitors” (PFIZER LIMITED, priority 2012, published 2015):

Molecular target: T1, TrkA (Homo sapiens, UniProt P04629)
T1 construct: aa 441-796; His; purchased Invitrogen PV3144
Assay: Isolated TRK enzyme assay (HTRF KinEASE-TK kit), PV3144 TrkA enzyme assay
Type: biochemical
Conditions: PV3144 TrkA enzyme assay, recombinant His-tagged cytoplasmic domain aa 441-796, 4 nM enzyme, 40 uM ATP; arithmetic mean where more than one reading; read-out: Trka enzyme (IC50)
Summary of the method: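 Recombinant His-tagged cytoplasmic domain of human TrkA, preactivated with ATP for 20 min, then 20 min with compound before biotinylated TK substrate (1 uM final) at room temperature. HTRF read at 665/620 nm; % inhibition normalised to reference-compound and DMSO controls, IC50 from sigmoid fit, mean of replicates.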

T1 sequence (P04629 441-796): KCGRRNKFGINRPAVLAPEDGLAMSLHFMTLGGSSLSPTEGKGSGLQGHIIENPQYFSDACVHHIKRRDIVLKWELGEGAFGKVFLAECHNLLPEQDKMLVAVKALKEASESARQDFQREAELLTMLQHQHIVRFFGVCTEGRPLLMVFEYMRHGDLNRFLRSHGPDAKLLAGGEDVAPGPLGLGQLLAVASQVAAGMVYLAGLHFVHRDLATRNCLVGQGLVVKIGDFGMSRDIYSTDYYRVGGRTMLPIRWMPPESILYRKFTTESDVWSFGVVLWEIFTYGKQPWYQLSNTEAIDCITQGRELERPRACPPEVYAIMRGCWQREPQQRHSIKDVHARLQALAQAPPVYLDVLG

How did the IC50 turn out when `Cc1nccn1CC(=O)Nc1cc(C(=O)c2cn(C(C)C)c3ncncc23)ccn1` [Example 162, 2-(2-methyl-1H-imidazol-1-yl)-N-(4-{[7-(propan-2-yl)-7H-pyrrolo[2,3-d]pyrimidin-5-yl]carbonyl}pyridin-2-yl)acetamide] was run?
The IC50 was 9800 nM.

Which IC50 does the source give for `CC(C)n1cc(C(=O)c2ccnc(NC(=O)Cc3ccc(F)cc3F)c2)c2cncnc21` [Example 118, 2-(2,4-difluorophenyl)-N-(4-{[7-(propan-2-yl)-7H-pyrrolo[2,3-d]pyrimidin-5-yl]carbonyl}pyridin-2-yl)acetamide] here?
The IC50 was 8.82 nM.

Which IC50 does the source give for `C[C@@H](CO)n1cc(C(=O)c2cc(NC(=O)Cc3ccc(C(F)(F)F)cc3)ccn2)c2cncnc21` [Example 17, N-[2-({7-[(2S)-1-hydroxypropan-2-yl]-7H-pyrrolo[2,3-d]pyrimidin-5-yl}carbonyl)pyridin-4-yl]-2-[4-(trifluoromethyl)phenyl]acetamide] here?
The IC50 was 72.2 nM.

`CC(C)(CO)n1cc(C(=O)c2ccc(C#N)c(NC(=O)Cc3ccc(Cl)cc3)c2)c2cnc(N)nc21` [Example 9, N-(5-{[2-amino-7-(1-hydroxy-2-methylpropan-2-yl)-7H-pyrrolo[2,3-d]pyrimidin-5-yl]carbonyl}-2-cyanophenyl)-2-(4-chlorophenyl)acetamide] was tested. Which IC50 did it give?
Its IC50 is 11.1 nM.

How did the IC50 turn out when `Cc1cc(C(=O)c2cn(C(C)C)c3ncncc23)cc(NC(=O)Cc2ccccc2)n1` [Example 75, N-(6-methyl-4-{[7-(propan-2-yl)-7H-pyrrolo[2,3-d]pyrimidin-5-yl]carbonyl}pyridin-2-yl)-2-phenylacetamide] was run?
The IC50 was 306 nM.

How did the IC50 turn out when `Cc1ccnn1CC(=O)Nc1cc(C(=O)c2cn(C(C)C)c3ncncc23)ccn1` [Example 160, 2-(5-methyl-1H-pyrazol-1-yl)-N-(4-{[7-(propan-2-yl)-7H-pyrrolo[2,3-d]pyrimidin-5-yl]carbonyl}pyridin-2-yl)acetamide] was run?
Its IC50 is 86.3 nM.

With `C[C@H](CO)n1cc(C(=O)c2cc(NC(=O)Cc3ccc(Cl)cn3)ccn2)c2cncnc21` [Example 25, 2-(5-chloropyridin-2-yl)-N-[2-({7-[(2R)-1-hydroxypropan-2-yl]-7H-pyrrolo[2,3-d]pyrimidin-5-yl}carbonyl)pyridin-4-yl]acetamide] as the compound, how does the IC50 read?
Its IC50 is 363 nM.

How did the IC50 turn out when `CC(C)n1cc(C(=O)c2cc(NC(=O)Cn3ccc(C4CC4)n3)ccn2)c2cncnc21` [Example 83, 2-(3-cyclopropyl-1H-pyrazol-1-yl)-N-(2-{[7-(propan-2-yl)-7H-pyrrolo[2,3-d]pyrimidin-5-yl]carbonyl}pyridin-4-yl)acetamide] was run?
Its IC50 is 10.2 nM.

`O=C(Cc1ccc(Cl)cc1Cl)Nc1ccnc(C(=O)c2cn(C(CO)CO)c3ncncc23)c1` [Example 95, 2-(2,4-dichlorophenyl)-N-(2-{[7-(1,3-dihydroxypropan-2-yl)-7H-pyrrolo[2,3-d]pyrimidin-5-yl]carbonyl}pyridin-4-yl)acetamide] was tested. Which IC50 did it give?
The IC50 was 146 nM.

`CC(C)n1cc(C(=O)c2ccnc(NC(=O)Cc3ccc(C#N)c(C(F)(F)F)c3)c2)c2cncnc21` [Example 71, 2-[4-cyano-3-(trifluoromethyl)phenyl]-N-(4-{[7-(propan-2-yl)-7H-pyrrolo[2,3-d]pyrimidin-5-yl]carbonyl}pyridin-2-yl)acetamide] was tested. Which IC50 did it give?
Its IC50 is 49.2 nM.

Which IC50 does the source give for `C[C@@H](CO)n1cc(C(=O)c2cc(NC(=O)Cc3ccc(C#N)cc3)ccn2)c2cncnc21` [Example 15, 2-(4-cyanophenyl)-N-[2-({7-[(2S)-1-hydroxypropan-2-yl]-7H-pyrrolo[2,3-d]pyrimidin-5-yl}carbonyl)pyridin-4-yl]acetamide] here?
The IC50 was 94.8 nM.

How did the IC50 turn out when `CC(C)n1cc(C(=O)c2ccnc(NC(=O)Cc3ccc(Cl)cn3)c2)c2cncnc21` [Example 74, 2-(5-chloropyridin-2-yl)-N-(4-{[7-(propan-2-yl)-7H-pyrrolo[2,3-d]pyrimidin-5-yl]carbonyl}pyridin-2-yl)acetamide] was run?
Its IC50 is 20.9 nM.

How did the IC50 turn out when `CC(C)n1cc(C(=O)c2cc(NC(=O)Cn3cc(C(F)(F)F)nn3)ccn2)c2cnc(N)nc21` [Example 90, N-(2-{[2-amino-7-(propan-2-yl)-7H-pyrrolo[2,3-d]pyrimidin-5-yl]carbonyl}pyridin-4-yl)-2-[4-(trifluoromethyl)-1H-1,2,3-triazol-1-yl]acetamide] was run?
The IC50 was 18.5 nM.

With `C[C@H](CO)n1cc(C(=O)c2cc(NC(=O)Cc3ccc(Cl)cc3)ccn2)c2cncnc21` [Example 28, 2-(4-chlorophenyl)-N-[2-({7-[(2R)-1-hydroxypropan-2-yl]-7H-pyrrolo[2,3-d]pyrimidin-5-yl}carbonyl)pyridin-4-yl]acetamide] as the compound, how does the IC50 read?
The IC50 was 111 nM.

Which IC50 does the source give for `CC(C)n1cc(C(=O)c2cc(NC(=O)Cn3cc(C4CC4)nn3)ccn2)c2cncnc21` [Example 82, 2-(4-cyclopropyl-1H-1,2,3-triazol-1-yl)-N-(2-{[7-(propan-2-yl)-7H-pyrrolo[2,3-d]pyrimidin-5-yl]carbonyl}pyridin-4-yl)acetamide] here?
The IC50 was 76.1 nM.

With `Cc1cc(C(F)(F)F)nn1CC(=O)Nc1ccnc(C(=O)c2cn(C(C)(CO)CO)c3ncncc23)c1` [Example 108, N-(2-{[7-(1,3-dihydroxy-2-methylpropan-2-yl)-7H-pyrrolo[2,3-d]pyrimidin-5-yl]carbonyl}pyridin-4-yl)-2-[5-methyl-3-(trifluoromethyl)-1H-pyrazol-1-yl]acetamide] as the compound, how does the IC50 read?
The IC50 was 369 nM.

With `C[C@H](CO)n1cc(C(=O)c2cc(NC(=O)Cc3ccc(F)cn3)ccn2)c2cncnc21` [Example 27, 2-(5-fluoropyridin-2-yl)-N-[2-({7-[(2R)-1-hydroxypropan-2-yl]-7H-pyrrolo[2,3-d]pyrimidin-5-yl}carbonyl)pyridin-4-yl]acetamide] as the compound, how does the IC50 read?
Its IC50 is 139 nM.

With `CC(C)n1cc(C(=O)c2ccnc(NC(=O)Cc3ccc(C#N)cc3)c2)c2cncnc21` [Example 68, 2-(4-cyanophenyl)-N-(4-{[7-(propan-2-yl)-7H-pyrrolo[2,3-d]pyrimidin-5-yl]carbonyl}pyridin-2-yl)acetamide] as the compound, how does the IC50 read?
The IC50 was 51 nM.

`O=C(Cc1ccc(C(F)(F)F)c(F)c1)Nc1cc(C(=O)c2cn(CCO)c3ncncc23)ccn1` [Example 142, 2-[3-fluoro-4-(trifluoromethyl)phenyl]-N-(4-{[7-(2-hydroxyethyl)-7H-pyrrolo[2,3-d]pyrimidin-5-yl]carbonyl}pyridin-2-yl)acetamide] was tested. Which IC50 did it give?
Its IC50 is 29.5 nM.

How did the IC50 turn out when `Cc1cc(C(F)(F)F)nn1CC(=O)Nc1cc(C(=O)c2cn(C(C)C)c3nc(N)ncc23)ccn1` [Example 46, N-(4-{[2-amino-7-(propan-2-yl)-7H-pyrrolo[2,3-d]pyrimidin-5-yl]carbonyl}pyridin-2-yl)-2-[5-methyl-3-(trifluoromethyl)-1H-pyrazol-1-yl]acetamide] was run?
The IC50 was 4.69 nM.

How did the IC50 turn out when `Cc1cc(C(F)(F)F)nn1CC(=O)Nc1ccnc(C(=O)c2cn([C@@H](C)CO)c3ncncc23)c1` [Example 20, N-[2-({7-[(2S)-1-hydroxypropan-2-yl]-7H-pyrrolo[2,3-d]pyrimidin-5-yl}carbonyl)pyridin-4-yl]-2-[5-methyl-3-(trifluoromethyl)-1H-pyrazol-1-yl]acetamide] was run?
The IC50 was 120 nM.

With `CC(CO)(CO)n1cc(C(=O)c2cc(NC(=O)Cc3ccc(C#N)cc3)ccn2)c2cncnc21` [Example 107, 2-(4-cyanophenyl)-N-(2-{[7-(1,3-dihydroxy-2-methylpropan-2-yl)-7H-pyrrolo[2,3-d]pyrimidin-5-yl]carbonyl}pyridin-4-yl)acetamide] as the compound, how does the IC50 read?
The IC50 was 467 nM.

For `CC(C)n1cc(C(=O)c2cc(NC(=O)Cn3ccc(C(F)(F)F)n3)ccn2)c2cnc(N)nc21` [Example 85, N-(2-{[2-amino-7-(propan-2-yl)-7H-pyrrolo[2,3-d]pyrimidin-5-yl]carbonyl}pyridin-4-yl)-2-[3-(trifluoromethyl)-1H-pyrazol-1-yl]acetamide], which IC50 is on record?
The IC50 was 54.1 nM.

How did the IC50 turn out when `O=C(Cc1ccc(Cl)cc1)Nc1cc(C(=O)c2cn(CC3(CO)COC3)c3ncncc23)ccn1` [Example 115, 2-(4-Chlorophenyl)-N-{4-[(7-{[3-(hydroxymethyl)oxetan-3-yl]methyl}-7H-pyrrolo[2,3-d]pyrimidin-5-yl)carbonyl}pyridin-2-yl]acetamide] was run?
Its IC50 is 126 nM.

How did the IC50 turn out when `Cc1cc(C)n(CC(=O)Nc2cc(C(=O)c3cn([C@H]4CC[C@@H](O)CC4)c4ncncc34)ccn2)n1` [Example 4, 2-(3,5-dimethyl-1H-pyrazol-1-yl)-N-(4-{[7-(cis-4-hydroxycyclohexyl)-7H-pyrrolo[2,3-d]pyrimidin-5-yl]carbonyl}pyridin-2-yl)acetamide] was run?
The IC50 was 74.3 nM.

With `CC1(n2cc(C(=O)c3cc(NC(=O)Cn4cc(C(F)(F)F)nn4)ccn3)c3cncnc32)COC1` [Example 171, N-(2-{[7-(3-methyloxetan-3-yl)-7H-pyrrolo[2,3-d]pyrimidin-5-yl]carbonyl}pyridin-4-yl)-2-[4-(trifluoromethyl)-1H-1,2,3-triazol-1-yl]acetamide] as the compound, how does the IC50 read?
Its IC50 is 255 nM.

With `CC(C)n1cc(C(=O)c2cc(NC(=O)Cc3ccc(Cl)cc3)ncn2)c2cncnc21` [Example 65, 2-(4-chlorophenyl)-N-(6-{[7-(propan-2-yl)-7H-pyrrolo[2,3-d]pyrimidin-5-yl]carbonyl}pyrimidin-4-yl)acetamide] as the compound, how does the IC50 read?
Its IC50 is 23.4 nM.

`CC(C)(C)n1cc(C(=O)c2cc(NC(=O)Cc3ccc(F)cn3)ccn2)c2cncnc21` [Example 37, N-{2-[(7-tert-butyl-7H-pyrrolo[2,3-d]pyrimidin-5-yl)carbonyl]pyridin-4-yl}-2-(5-fluoropyridin-2-yl)acetamide] was tested. Which IC50 did it give?
The IC50 was 21 nM.

How did the IC50 turn out when `CC(C)n1cc(C(=O)c2cc(NC(=O)Cc3ccc(C#N)cn3)ccn2)c2cnc(N)nc21` [Example 63, N-(2-{[2-amino-7-(propan-2-yl)-7H-pyrrolo[2,3-d]pyrimidin-5-yl]carbonyl}pyridin-4-yl)-2-(5-cyanopyridin-2-yl)acetamide] was run?
Its IC50 is 136 nM.

Which IC50 does the source give for `CC(CO)n1cc(C(=O)c2ccnc(NC(=O)Cc3ccc(C#N)cc3)c2)c2cncnc21` (racemic) [Example 32, 2-(4-cyanophenyl)-N-(4-{[7-(1-hydroxypropan-2-yl)-7H-pyrrolo[2,3-d]pyrimidin-5-yl]carbonyl}pyridin-2-yl)acetamide] here?
The IC50 was 101 nM.
